Assay results from US20240158384A1, “CB2 RECEPTOR AGONISTS” (The Board of Trustees of the Leland Stanford Junior …, priority 2020, published 2024).
Entries after “also recorded” stand apart in the source; their conditions may differ. Blank lines part the entries; values can stand above or below the compound they belong to.

Columns and labels:
human CB2R [1] = molecular target: T1, human CB2R (Homo sapiens, UniProt P34972); experiment: PathHunter β-Arrestin assay, beta-arrestin recruitment; format: cell-based; conditions: for Activation of beta-arrestin pathway (in words): hCB2, CP-55940 as control
T1 sequence (P34972 whole entry): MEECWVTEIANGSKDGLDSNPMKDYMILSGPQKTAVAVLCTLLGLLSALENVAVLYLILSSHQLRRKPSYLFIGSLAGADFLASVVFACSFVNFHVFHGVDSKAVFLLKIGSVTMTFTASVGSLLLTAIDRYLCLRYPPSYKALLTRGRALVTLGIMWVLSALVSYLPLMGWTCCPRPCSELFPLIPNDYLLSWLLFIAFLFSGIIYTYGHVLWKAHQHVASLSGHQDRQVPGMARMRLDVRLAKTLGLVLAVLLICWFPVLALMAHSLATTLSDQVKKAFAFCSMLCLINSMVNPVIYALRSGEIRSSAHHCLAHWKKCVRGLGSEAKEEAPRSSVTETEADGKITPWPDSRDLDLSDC
Experimental: The assay was performed using the PathHunter β-Arrestin human CB2 cell line (catalog no. 93-0706C2) and using the PathHunter® β-Arrestin Assay for GPCR Cell Lines (source: DiscoveRx, Fremont, CA, USA), according to the manufacturer's protocol (https://www.discoverx.com/tools-resources/document-resource-library/documents/user-manual-pathhunter-% CE % B2-arrestin-assay-for-gpcr-c). Briefly, cells were seeded at a density of 10,000 cells per well in a 96-well plate and incubated overnight (16-18 h) in a humidified atmosphere at 37° C. and 5% C02. Agonist prepared in PBS was added and the assay plate incubated for 3 h in a humidified atmosphere at 37° C. and 5% C02. Working detection solution was added and the plate was incubated for 1 h in the dark at room temperature. Chemiluminescence was measured on an CLARIOstar plate reader (BMG LABTECH Inc., Cary, NC, USA).

human CB2R [2] = molecular target: T1, human CB2R; experiment: cAMP Hunter eXpress GPCR assay, human CB2: inhibition of forskolin-stimulated cAMP in CHO cells; format: cell-based; set-up: host or cells: CHO cells
Experimental: Briefly, cAMP Hunter eXpress Cells were seeded 18-24 h prior to the in a 96-well tissue culture treated assay plate and incubated in 5% CO2 at 37° C. in a humidified incubator. After removal of cell media, agonist compound and forskolin prepared in cell assay buffer was added and incubated at 37° C. The CB1 cAMP assay was stimulated with 20 μM final concentration of forskolin with 40 minutes incubation time. The CB2 cAMP assay was stimulated with 25 μM final concentration of forskolin with 35 minutes incubation time. The assay was stopped by incubation with antibody and working solution for 1 h at room temperature. After over 3 h incubation at room temperature in the dark with enzyme acceptor solution, chemiluminescence was measured on a CLARIOstar plate reader (BMG LABTECH Inc., Cary, NC, USA).

Male C57Bl6J mice = experiment: Spontaneous locomotor activity in activity chamber; format: in vivo, mouse; conditions: mouse, in vivo, ip
[3] = test system: Male C57BL/6J mice brain tissue; experiment: Brain cytokine gene expression (TaqMan qPCR); format: in vivo, mouse; conditions: 0.1 and 0.3 mg/kg or 1, 2, and 3 mg/kg
Experimental: Male C57BL/6J mice, 6-8 weeks old were dosed on Day 1,2,3,4,5, and 10, or 11 with vehicle or CBS-159 at 0.1 and 0.3 mg/kg or 1, 2, and 3 mg/kg. Mice were terminated on Day 10 or 11, 3.5 hours after dosing vehicle or CBS-159. Total RNA was isolated from brain tissue dissections using the RNeasy Lipid Tissue Mini Kit (Qiagen) (see Evans et al. Neurobiol. Dis. 2020, 146:105089). One microgram of total RNA was transcribed into cDNA (Superscript III, Invitrogen). PCR was performed in triplicate using TaqMan gene expression master mix (Applied Bio-systems) and validated TaqMan gene expression assays, Tnfa (Mm00443258_m1), IL1β (Mm00434228_m1), IL6 (Mm00446190_m1),), IL18 (Mm00434226_m1), and glyceraldehyde-3-phosphate dehydrogenase (Gapdh; Mm99999915_g1). Amplification was performed using a StepOnePlus system (Applied Biosystems). Fold changes of expression relative to control were determined after normalization to Gapdh. Relative quantification and old change were calculated by the comparative CT method (Schmittgen and Livak, Nat. Protoc. 2008, 3(6):1101-1108).

[4] = test system: mice dosed with LPS and ATP; experiment: LPS model of systemic inflammation, Luminex cytokines in plasma and brain homogenate; format: in vivo, mouse; conditions: 0.5 mg/kg ip daily for 10 days, LPS 100 ug/kg ip, ATP 50 mg/kg ip
Experimental: Mice were dosed with Compound 24 (0.5 mg/kg ip) or vehicle daily for 10 days. Lipopolysaccharide (LPS) (100 ug/kg ip) was given 1 hour after 10th dose on final day. ATP (50 mg/kg ip) was given 2 hours after LPS and then mice were sacrificed 30 minutes after ATP (2.5 hours after LPS). Multiplex tissue cytokines were analyzed in plasma and brain homogenate from all brain regions dissected above using a Luminex 38-plex mouse cytokine assay as previously described for aged versus young mice (Evans et al. Neurobiol Aging 2021; 106:241-56). The Luminex assay was performed according to the manufacturer's instructions. Briefly, tissue samples were homogenized in RIPA buffer containing proteinase inhibitor by pulling tissue through a 23 g needle (15×) and then sonicating for 3×3 second pulses. Homogenate was spun at 14,000 g for 10 minutes, and protein concentrations were determined by the Pierce BCA assay. Samples were diluted to a common concentration of 6 μg/μL. Plasma samples were diluted 1:3. Plasma and brain homogenate samples were run in duplicate on a 96 well plate alongside standard curve and quality control calibration samples.

Heroin SA-trained rats = experiment: Heroin self-administration model; format: in vivo, rat; conditions: treated daily during 21 days of abstinence, 3 mg/kg i.p., vs vehicle
Experimental: In the heroin SA model, rats were surgically implanted with a catheter that connects to their heart. […] They learned to press an active lever to get an infusion of heroin through their implanted tube. […] Heroin SA-trained rats underwent 21 days of abstinence after training. […] Heroin-seeking behaviors were assessed before and after the abstinence period.

heroin-addicted mice = experiment: Naloxone-precipitated withdrawal model; format: in vivo, mouse; conditions: 3 mg/kg i.p., jumping 1 minute after naloxone 50 mg/kg
Experimental: The naloxone-precipitated withdrawal model uses an opioid receptor antagonist, naloxone, to trigger highly aversive withdrawal symptoms (e.g., jumping, burrowing, “wet-dog” shakes, hyperreactivity) in heroin-addicted mice. Signs such as jumping can be quantified after administration of naloxone (“naloxone precipitated withdrawal”). […] On Day 7, 60 minutes after a final drug and heroin dose (40 mg/kg), naloxone was administered (50 mg/kg), and jump count measured for 1-15 minutes.

[5] = cAMP assay, CP-55940 as full agonist control

Structure (SMILES): CC(C)(C)c1cc(NC(=O)N2CCCN2c2cc(F)cc(F)c2)on1 [Compound 19, N-(3-(tert-butyl)isoxazol-5-yl)-2-(3,5-difluorophenyl)pyrazolidine-1-carboxamide]
melting point: 181 to 185 °C

Structure (SMILES): CC(C)(CO)c1cc(NC(=O)N2CCCN2c2ccc(C(F)(F)F)cn2)on1 [Compound 24, N-(3-(1-hydroxy-2-methylpropan-2-yl)isoxazol-5-yl)-2-(5-(trifluoromethyl)pyridin-2-yl)pyrazolidine-1-carboxamide]
Activation of beta-arrestin pathway (in words) (human CB2R [1]): weak beta-arrestin activity | Distance moved / spontaneous locomotor activity (Male C57Bl6J mice): does not affect spontaneous locomotor activity in mice | Anti-inflammatory function in the brain [3]: displays anti-inflammatory function in the brain | Anti-inflammatory function in LPS model of systemic inflammation [4]: has anti-inflammatory activity; also recorded: displays anti-inflammatory function in a LPS model of systemic inflammation | CB2 agonist character (in words) (human CB2R [2]; [5]): potent agonists of CB2 | Selectivity for CB2 over CB1 (in words) (human CB2R [2]; cAMP assays hCB1 vs hCB2): selective for CB2 over CB1

Structure (SMILES): CC(C)(C)c1cc(NC(=O)N2CCCN2c2ccc(C(F)(F)F)cc2)on1 [Compound 11, N-(3-(tert-butyl)isoxazol-5-yl)-2-(4-(trifluoromethyl)phenyl)pyrazolidine-1-carboxamide]
melting point: 211 to 215 °C | EC50 (human CB2R [1]): > 1 µM | Activation of beta-arrestin pathway (in words) (human CB2R [1]): weakly/partially activates the beta-arrestin pathway | Emax (human CB2R [1]; read-out: B-arrestin Maximum Activation): 35.5% | Emax (human CB2R [2]; CHO, read-out: CB2 Maximum Activation): 114% | EC50 (human CB2R [2]; Table 3; cAMP assay, 25 μM forskolin, 35 minutes; read-out: CB2 EC50): 0.0752 µM | CB2 agonist character (in words) (human CB2R [2]; [5]): full agonist | Selectivity for CB2 over CB1 (in words) (human CB2R [2]; cAMP assays hCB1 vs hCB2): selective for CB2 over CB1

Structure (SMILES): CC(C)(C)c1cc(NC(=O)N2CCCN2)on1 [Compound 31, N-(3-(tert-butyl)isoxazol-5-yl)pyrazolidine-1-carboxamide]
melting point: 175 to 179 °C

Structure (SMILES): Cc1nc(N2CCN(C)CC2)c2nc(-c3ccccc3Cl)n(C3CCOCC3)c2n1 [LY2828360, reference compound]
Abstinence-induced heroin seeking (Heroin SA-trained rats): less abstinence-induced heroin seeking than the vehicle-treated rats | Activation of beta-arrestin pathway (in words) (human CB2R [1]): weakly/partially activates the beta-arrestin pathway | Emax (human CB2R [1]; read-out: CB2 Maximum Activation): 51.7% | Negative effects of heroin withdrawal (jumping behavior after naloxone) (heroin-addicted mice): reduce the negative effects of heroin withdrawal | Emax (human CB2R [2]; CHO; read-out: CB2 Maximum Activation): 52.6%

Structure (SMILES): Cc1cc2c(nc(-c3ccccc3Cl)n2C2CCOCC2)c(N2CCN(C)CC2)n1 [Compound 2, 2-(2-chlorophenyl)-6-methyl-4-(4-methylpiperazin-1-yl)-1-(tetrahydro-2H-pyran-4-yl)-1H-imidazo[4,5-c]pyridine]
melting point: 248 to 252 °C

Structure (SMILES): CC(C)(C)c1cc(NC(=O)N2CCC(=O)N2c2ccc(C(F)(F)F)cc2)on1 [Compound 29, N-(3-(tert-butyl)isoxazol-5-yl)-3-oxo-2-(4-(trifluoromethyl)phenyl)pyrazolidine-1-carboxamide]
melting point: 186 to 190 °C

Now from value to compound:

Activation of beta-arrestin pathway (in words) (human CB2R [1]): almost no beta-arrestin activity | CB2 agonist character (in words) (human CB2R [2]; [5]): partial agonist of CB2 | Selectivity for CB2 over CB1 (in words) (human CB2R [2]; cAMP assays hCB1 vs hCB2): selective for CB2 over CB1
Structure (SMILES): O=C(Nc1cc(C2CC2)no1)N1CCCN1c1ccc(C(F)(F)F)cc1 [Compound 16, N-(3-cyclopropylisoxazol-5-yl)-2-(4-(trifluoromethyl)phenyl)pyrazolidine-1-carboxamide]

melting point: 190 to 194 °C
Structure (SMILES): CC(C)(C)c1cc(NC(=O)N2CCCN2c2ccc(F)cc2)on1 [Compound 21, N-(3-(tert-butyl)isoxazol-5-yl)-2-(4-fluorophenyl)pyrazolidine-1-carboxamide]

melting point: 175 to 179 °C
Structure (SMILES): CC(C)(C)c1cc(NC(=O)N2CCCC2c2ccc(C(F)(F)F)cc2)no1 (stereo not drawn) [Compound 26, N-(5-(tert-butyl)isoxazol-3-yl)-2-(4-(trifluoromethyl)phenyl)pyrrolidine-1-carboxamide]

melting point: 184 to 188 °C
Structure (SMILES): CC(C)(C)c1cc(NC(=O)N2CCCN2c2ccc(C(F)(F)F)cn2)on1 [Compound 3, N-(3-(tert-butyl)isoxazol-5-yl)-2-(5-(trifluoromethyl)pyridin-2-yl)pyrazolidine-1-carboxamide]

melting point: 231 to 235 °C
Structure (SMILES): CN1CCN(c2nccc3c2nc(-c2ccccc2Cl)n3C2CCOCC2)CC1 [Compound 1, 2-(2-chlorophenyl)-4-(4-methylpiperazin-1-yl)-1-(tetrahydro-2H-pyran-4-yl)-1H-imidazo[4,5-c]pyridine]
